{"source": "patent US12433908B2", "about": "“Use of nicotinamide riboside, nicotinic acid riboside, and nicotinamide mononucleotide, reduced nicotinyl compounds, and nicotinoyl compound derivatives in infant formula for healthy development” (ChromaDex, Inc., priority 2016, dated 2025)", "assay": "CBC analysis of piglets given NR solution", "assay_type": "in vivo, piglets (Yorkshire/Hampshire crossbred)", "excerpt": "Sixteen (n=16) Yorkshire/Hampshire crossbred piglets were obtained from the University of California, Davis Swine Teaching and Research Center and received on lactation day (“LD”) 14. Prior to arrive, the piglets were processed by the suppler between 1-3 days of age by administration of iron and an antibiotic ([…] for swine) as is common practice at the University of California, Davis Swine Facility. It is not common practice at the University of California, Davis Swine Facility to give a second dose of iron and antibiotics unless it becomes necessary. The piglets were from two litters (litters 15 and 17), weaned at 17 days of age, and randomly placed into one of two groups balanced for litter, sex, and weight. The animals were not acclimated to the facility at arrival and were subsequently acclimated to the test diet administration system. The piglets were weaned into a temperature-controlled room (approximately 27-29° C.) that contained 10 adjacent pens. The piglets were group-housed in the nursery room at the Swine Facility, which is an enclosed room with access restricted to trained personnel. The two groups were separated by one pen containing piglets of similar age. Each morning enough nicotinamide riboside (NR, I) in water solution was prepared for that day's dose administration according to the dose preparation protocol. At least 5 mL of prepared dose was reserved and immediately frozen after preparation each day for analysis of nicotinamide riboside (NR, I) for the purpose of confirming stability of the dose material. The doses were stored at refrigeration temperature while not in use. Nicotinamide riboside (NR, I) was dosed once per day in the morning and at the same time each day. Piglets in the control group received the same volume of plain water and were dosed on the same schedule. Starting on Day 1, animals in the nicotinamide riboside (NR, I) group were dosed once daily (in the morning) with 277 mg nicotinamide riboside (NR, I) per pig resuspended in water for seven days. After one week, animals were dosed once daily with 342 mg nicotinamide riboside (NR, I) per pig delivered in 2.5 mL for seven days. For Days 1 and 2, the nicotinamide riboside (NR, I) solution was prepared by resuspending 2770 mg nicotinamide riboside (NR, I) in 50 mL water, and 5 mL of this solution was delivered to each pig by squirting it into the back of the mouth using a 10 mL syringe with a piece of tubing attached to the end. To reduce the volume to more efficiently deliver the nicotinamide riboside (NR, I) solution, the 2770 mg was resuspended in 25 mL water and 2.5 mL of the solution was squirted into the back of the mouth of each pig using a 3 mL syringe for Days 3-7. For Days 8-14, 3420 mg nicotinamide riboside (NR, I) was resuspended in 25 mL water and 2.5 mL of this solution was delivered to each pig. Each day prior to dosing, 2.5 mL of the nicotinamide riboside (NR, I) (5 mL on Days 1 and 2) were placed into a separate tube and frozen. Blood was collected from each pig via jugular venipuncture on Days 1, 8, and 14. In each instance, blood was collected prior to dosing with nicotinamide riboside (NR, I). On Day 1, the sow was removed from the piglets for approximately three hours prior to sample collection. On Days 8 and 14, feed was removed from the animals' pens 12 hours prior to sample collection. Blood was collected into purple-top vacutainers for CBC analysis and into red-top vacutainers for blood chemistry analysis. CBC analysis was performed at IDEXX Laboratories in West Sacramento, California using the Sysmex XT-iV Vet Hematology Autoanalyzer (Sysmex America Inc., Lincolnshire, Illinois). Red-top tubes were spun to collect serum and the serum frozen. Frozen aliquots (500 μL) were submitted to the University of California, Davis Veterinary medicine Teaching Hospital Clinical Diagnostic Laboratory for Blood Chemistry Analysis using the Cobas 6000 C501 Clinical Chemistry Analyzer (Roche Diagnostics, Indianapolis, IN). […]", "key": {"[1]": {"conditions": "Wk 1, 277 mg/pig once daily oral"}, "[2]": {"conditions": "Wk 2, 342 mg/pig once daily oral Days 8-14"}}}
{"smiles": "NC(=O)c1ccc[n+]([C@@H]2O[C@H](CO)[C@@H](O)[C@H]2O)c1", "note": "[NR, Nicotinamide riboside]", "values": [{"measurement": "Basophils, %", "setting": "Baseline, before dosing", "value": 0.57, "unit": "%"}, {"measurement": "Basophils, count", "setting": "Baseline, before dosing", "value": 60, "unit": "cells/μL"}, {"measurement": "Eosinophils, %", "setting": "Baseline, before dosing", "value": 1.11, "unit": "%"}, {"measurement": "Eosinophils, count", "setting": "Baseline, before dosing", "value": 108, "unit": "cells/μL"}, {"measurement": "HCT", "setting": "Baseline, before dosing", "value": 29.9, "unit": "%"}, {"measurement": "HGB", "setting": "Baseline, before dosing", "value": 10.4, "unit": "g/dL"}, {"measurement": "Lymphocytes, %", "setting": "Baseline, before dosing", "value": 65.8, "unit": "%"}, {"measurement": "Lymphocytes, count", "setting": "Baseline, before dosing", "value": "6.48 ×10^3 cells/μL"}, {"measurement": "MCH", "setting": "Baseline, before dosing", "value": 16.0, "unit": "pg"}, {"measurement": "MCHC", "setting": "Baseline, before dosing", "value": 34.3, "unit": "g/dL"}, {"measurement": "MCV", "setting": "Baseline, before dosing", "value": 46.2, "unit": "fL"}, {"measurement": "Monocytes, %", "setting": "Baseline, before dosing", "value": 6.17, "unit": "%"}, {"measurement": "Monocytes, count", "setting": "Baseline, before dosing", "value": 596, "unit": "cells/μL"}, {"measurement": "Neutrophil/Lymphocyte", "setting": "Baseline, before dosing", "value": 0.41}, {"measurement": "Neutrophils, %", "setting": "Baseline, before dosing", "value": 26.3, "unit": "%"}, {"measurement": "Neutrophils, count", "setting": "Baseline, before dosing", "value": "2.47 ×10^3 cells/μL"}, {"measurement": "RBC", "setting": "Baseline, before dosing", "value": 6.45, "unit": "M/μL"}, {"measurement": "WBC", "setting": "Baseline, before dosing", "value": "9.7 ×10^3 cells/μL"}, {"measurement": "Basophils, %", "setting": "[1]", "value": 0.49, "unit": "%"}, {"measurement": "Basophils, count", "setting": "[1]", "value": 68, "unit": "cells/μL"}, {"measurement": "Eosinophils, %", "setting": "[1]", "value": 1.52, "unit": "%"}, {"measurement": "Eosinophils, count", "setting": "[1]", "value": 213, "unit": "cells/μL"}, {"measurement": "HCT", "setting": "[1]", "value": 27.3, "unit": "%"}, {"measurement": "HGB", "setting": "[1]", "value": 9.4, "unit": "g/dL"}, {"measurement": "Lymphocytes, %", "setting": "[1]", "value": 51.0, "unit": "%"}, {"measurement": "Lymphocytes, count", "setting": "[1]", "value": "6.34 ×10^3 cells/μL"}, {"measurement": "MCH", "setting": "[1]", "value": 15.4, "unit": "pg"}, {"measurement": "MCHC", "setting": "[1]", "value": 34.7, "unit": "g/dL"}, {"measurement": "MCV", "setting": "[1]", "value": 44.7, "unit": "fL"}, {"measurement": "Monocytes, %", "setting": "[1]", "value": 6.01, "unit": "%"}, {"measurement": "Monocytes, count", "setting": "[1]", "value": 803, "unit": "cells/μL"}, {"measurement": "Neutrophil/Lymphocyte", "setting": "[1]", "value": 0.85}, {"measurement": "Neutrophils, %", "setting": "[1]", "value": 40.9, "unit": "%"}, {"measurement": "Neutrophils, count", "setting": "[1]", "value": "5.41 ×10^3 cells/μL"}, {"measurement": "RBC", "setting": "[1]", "value": 6.06, "unit": "M/μL"}, {"measurement": "WBC", "setting": "[1]", "value": "12.8 ×10^3 cells/μL"}, {"measurement": "Basophils, %", "setting": "[2]", "value": 0.30, "unit": "%"}, {"measurement": "Basophils, count", "setting": "[2]", "value": 61, "unit": "cells/μL"}, {"measurement": "Eosinophils, %", "setting": "[2]", "value": 1.07, "unit": "%"}, {"measurement": "Eosinophils, count", "setting": "[2]", "value": 179, "unit": "cells/μL"}, {"measurement": "HCT", "setting": "[2]", "value": 26, "unit": "%"}, {"measurement": "HGB", "setting": "[2]", "value": 9.4, "unit": "g/dL"}, {"measurement": "Lymphocytes, %", "setting": "[2]", "value": 54.9, "unit": "%"}, {"measurement": "Lymphocytes, count", "setting": "[2]", "value": "10.31 ×10^3 cells/μL"}, {"measurement": "MCH", "setting": "[2]", "value": 15.5, "unit": "pg"}, {"measurement": "MCHC", "setting": "[2]", "value": 35.2, "unit": "g/dL"}, {"measurement": "MCV", "setting": "[2]", "value": 44.2, "unit": "fL"}, {"measurement": "Monocytes, %", "setting": "[2]", "value": 6.80, "unit": "%"}, {"measurement": "Monocytes, count", "setting": "[2]", "value": 1336, "unit": "cells/μL"}, {"measurement": "Neutrophil/Lymphocyte", "setting": "[2]", "value": 0.73}, {"measurement": "Neutrophils, %", "setting": "[2]", "value": 36.9, "unit": "%"}, {"measurement": "Neutrophils, count", "setting": "[2]", "value": "7.59 ×10^3 cells/μL"}, {"measurement": "RBC", "setting": "[2]", "value": 6.11, "unit": "M/μL"}, {"measurement": "WBC", "setting": "[2]", "value": "19.5 ×10^3 cells/μL"}, {"measurement": "CBC and serum chemistries, NR vs. control", "setting": "baseline and weekly for the 2-week intervention", "value": "no statistically significant differences"}]}
